Results on three compounds are retold here after patent US4673562A, “Bisamide bisthiol compounds useful for making technetium radiodiagnostic renal agents” (The Children's Medical Center Corporation, priority 1983, dated 1987).

Series [1] is described as follows: Gamma camera: % total dose in bladder, 99mTc complexes coinjected with 131I-OIH into normal dogs (Tables I, III). It is filed as in vivo, dog. On the set-up: Comparison of % total dose in bladder versus 131I-OIH, column headed by drawing 19 (± s.d.): unit not given here. The conditions noted are these: for % Total Dose In Bladder (gamma camera data): single animals; for % total dose in bladder at 35 minutes, Average 99mTc (± s.d) / Comparison of % total dose in bladder versus 131I-OIH, column headed by drawing 19 (± s.d.): Table III; for % total dose in bladder at 35 minutes, Average 99mTc (± s.d): average of dogs; for Comparison of % total dose in bladder versus 131I-OIH, column headed by drawing 19 (± s.d.): dogs; for rate of excretion in the urine: versus 131I-OIH. As to the method:
The two fractions collected from the products of synthesis in each case were denoted (XVIA), (XVIB), (XXXIA), and (XXXIB), respectively.
Images were recorded at 1, 5, 10, 15, 20, 25, 30 and 35 minutes after administration. The initial image at one minute was used to collect 750,000 counts. All subsequent images were exposed for the same length of time as this first image, and the number of counts noted. […] In this way, the counts collected in the camera images cound be related to absolute activity levels (mCi or μCi). The animals were then observed until the urine samples were free of ^99m Tc.
The values represent the calculated % total dose in the camera region of interest set over the bladder.

Series [2] can be described thus: Average % total dose in urine samples of dogs (Table II). The following applies: mean. The series is classed as in vivo, dog. From the text: The diastereomeric ^99m Tc complexes formed by reduction of pertechnetate in the presence of (2-benzoylthioacetyl)- glycyl-(S-benzoyl)-cysteine methyl ester (compound XVI) and N-2-(benzoylthio)ethyl)-N'-1-carbomethoxy-(2-benzoylthio)ethyl]oxamide (compound XXXI) were synthesized and separated by high pressure liquid chromatography. The two fractions collected from the products of synthesis in each case were denoted (XVIA), (XVIB), (XXXIA), and (XXXIB), respectively.
Samples of each fraction were mixed with appropriate amounts of ^131 I-OIH and coinjected into normal dogs placed under a gamma camera. Images were recorded at 1, 5, 10, 15, 20, 25, 30 and 35 minutes after administration. The initial image at one minute was used to collect 750,000 counts. All subsequent images were exposed for the same length of time as this first image, and the number of counts noted. Immediately after each count, a urine sample was drawn from the bladder via a indwelling catheter, and the ^99m Tc ANd ^131 I activity determined using an ionization chamber. In this way, the counts collected in the camera images cound be related to absolute activity levels (mCi or μCi). The animals were then observed until the urine samples were free of ^99m Tc.
In Table II can be seen the average % total dose valus observed in the urine samples collected at each time point. Also quoted in parentheses are the standard deviation and standard error of the mean.

A short description of series [3]: Biodistribution in Swiss Webster albino male mice, coinjected with 131I-OIH (Tables IV, V). It is filed as in vivo, mouse. The following applies: for Blood, % total dose per organ ± s.d. / Intestine, % total dose per organ ± s.d. / Kidneys, % total dose per organ ± s.d. / Liver, % total dose per organ ± s.d. / Stomach, % total dose per organ ± s.d. / Urine, % total dose ± s.d.: Table IV, XVI A and 131I-OIH coinjected. As to the method: The diastereomers (XVIA) and (XVIB) were synthesized and then isolated by high pressure liquid chromatography as described previously, and their biodistributions obtained in groups in six Swiss Webster albino male mice. […] The mice were then placed in metabolic cages to collect urine. At 10 and 120 minutes after injection, the penis was ligated, the mice killed with chloroform vapor, and the organs disected.

Where [4] appears, read: 5 min post injection, normal dogs, 5 min.
[5] abbreviates: 10 min post injection, normal dogs, 10 min.
Where [6] appears, read: 15 min post injection, normal dogs, 15 min.
Setting [7] is: 20 min post injection, normal dogs, 20 min.
Where [8] appears, read: 25 min post injection, normal dogs, 25 min.
[9] abbreviates: 30 min post injection, normal dogs, 30 min.
The mark [10] stands for this setting: 35 min post injection, normal dogs, 35 min.

“And” between values parts separate entries of the source, which are not always exact repeats. Equal entries are not always repeated.

Turning to `O=C(O)C1C[S][Tc-]23(=[O])[S]CC[N]2C(=O)C(=O)[N]13` (single isomer, unassigned) [XXXIB], the “% Total Dose In Bladder (gamma camera data)” value in series [1] (setting [4]) was 15.45 % total dose and 12.59 % total dose and 12.63 % total dose; in series [1] (setting [5]), 37.76 % total dose and 28.47 % total dose and 27.98 % total dose; in series [1] (setting [6]), 49.26 % total dose and 41.85 % total dose and 35.28 % total dose; in series [1] (setting [7]) it was 61.08 % total dose and 48.71 % total dose and 43.22 % total dose; in series [1] (setting [8]), 67.47 % total dose and 55.87 % total dose and 48.35 % total dose; in series [1] (setting [9]) it was 70.23 % total dose and 60.72 % total dose and 50.84 % total dose. Besides, the “% Total Dose In Bladder (gamma camera data)” value in series [1] (setting [10]) was 69.76 % total dose and 61.09 % total dose and 57.93 % total dose. Besides, the “% total dose in bladder at 35 minutes, Average 99mTc (± s.d)” value (“% total dose in bladder at 35 minutes” below) in series [1] (35 min) is reported as 62.93 % total dose. The “Comparison of % total dose in bladder versus 131I-OIH, column headed by drawing 19 (± s.d.)” value (shortened to “Comparison of % total dose”) in series [1] (35 min) amounted to 77.80. The “rate of excretion in the urine” value in series [1] (normal dogs) was “a significant difference exists between (XXXIA) and (XXXIB)”. Besides, the “Average % Total Dose in Urine Samples” value in series [2] (5 min post injection, 5 min) came out at 13.56 % total dose; in series [2] (10 min post injection, 10 min), 31.40 % total dose; in series [2] (15 min post injection, 15 min), 42.13 % total dose; in series [2] (20 min post injection, 20 min), 51.00 % total dose; in series [2] (25 min post injection, 25 min), 57.23 % total dose; in series [2] (30 min post injection, 30 min), 60.60 % total dose. For the same compound, the “Average % Total Dose in Urine Samples” value in series [2] (35 min post injection, 35 min) was determined as 62.93 % total dose.
Regarding `O=C(O)C1C[S][Tc-]23(=[O])[S]CC(=O)[N]2CC(=O)[N]13` (single isomer, unassigned) [XVIA], the “% Total Dose In Bladder (gamma camera data)” value was 13.13 % total dose and 9.63 % total dose and 3.25 % total dose in series [1] (setting [4]); 38.08 % total dose and 34.15 % total dose and 33.73 % total dose in series [1] (setting [5]); 49.99 % total dose and 47.44 % total dose and 46.89 % total dose in series [1] (setting [6]); 57.29 % total dose and 59.01 % total dose and 56.40 % total dose in series [1] (setting [7]); 63.73 % total dose and 64.39 % total dose and 62.63 % total dose in series [1] (setting [8]); 63.67 % total dose and 66.95 % total dose and 58.77 % total dose in series [1] (setting [9]). Besides, the “% Total Dose In Bladder (gamma camera data)” value in series [1] (setting [10]) was 66.64 % total dose and 72.79 % total dose and 63.08 % total dose. The “% total dose in bladder at 35 minutes” value in series [1] (35 min) was 67.50 % total dose. In addition, the “Comparison of % total dose” value in series [1] (35 min) worked out at 91.71. Further, the “pharmacokinetic behavior of the diastereomers” value in series [1] (normal dogs) is reported as “identical”. Moreover, in series [1] (normal dogs), the “rate of excretion in the urine” value was “comparable rates of excretion to each other and to OIH”. The “Average % Total Dose in Urine Samples” value in series [2] (5 min post injection, 5 min) is recorded as 8.67 % total dose; in series [2] (10 min post injection, 10 min), 35.32 % total dose; in series [2] (15 min post injection, 15 min), 48.11 % total dose; in series [2] (20 min post injection, 20 min), 57.57 % total dose; in series [2] (25 min post injection, 25 min) it was 63.25 % total dose; in series [2] (30 min post injection, 30 min), 63.20 % total dose. Further, the “Average % Total Dose in Urine Samples” value in series [2] (35 min post injection, 35 min) is recorded as 67.50 % total dose. The results for the “Blood, % total dose per organ ± s.d.” value in series [3] (10 min) and in series [3] (120 min) were 2.24 ± 0.33 % total dose per organ and 0.05 ± 0.01 % total dose per organ, respectively. Moreover, the “Intestine, % total dose per organ ± s.d.” value in series [3] (10 min) is 1.07 ± 0.20 % total dose per organ; in series [3] (120 min), 0.99 ± 0.59 % total dose per organ. Moreover, the “Kidneys, % total dose per organ ± s.d.” value in series [3] (10 min) is 3.19 ± 0.41 % total dose per organ; in series [3] (120 min), 0.11 ± 0.04 % total dose per organ. The “Liver, % total dose per organ ± s.d.” value in series [3] (10 min) turned out to be 1.39 ± 0.31 % total dose per organ; in series [3] (120 min), 0.19 ± 0.03 % total dose per organ. For the same compound, the “Stomach, % total dose per organ ± s.d.” value is 0.10 ± 0.01 % total dose per organ in series [3] (10 min) and 0.21 ± 0.47 % total dose per organ in series [3] (120 min). Also, the “Urine, % total dose ± s.d.” value in series [3] (10 min) stood at 65.01 ± 9.7 % total dose per organ; in series [3] (120 min), 89.87 ± 2.70 % total dose per organ. In addition, the “clearance into the urine” value in series [3] (mice, versus 131I-OIH) was “cleared rapidly into the urine at comparable rates to each other and to the radiopharmaceutical ^131 I-OIH”.
In the case of `O=C(O)C1C[S][Tc-]23(=[O])[S]CC[N]2C(=O)C(=O)[N]13` (single isomer, unassigned) [XXXIA], the “% Total Dose In Bladder (gamma camera data)” value was 5.76 % total dose and 4.12 % total dose and 0.81 % total dose in series [1] (setting [4]); 15.30 % total dose and 12.39 % total dose and 9.87 % total dose in series [1] (setting [5]); 22.26 % total dose and 15.99 % total dose and 16.51 % total dose in series [1] (setting [6]); 28.21 % total dose and 21.59 % total dose and 22.50 % total dose in series [1] (setting [7]); 32.68 % total dose and 25.47 % total dose and 27.72 % total dose in series [1] (setting [8]); 38.08 % total dose and 30.43 % total dose and 32.34 % total dose in series [1] (setting [9]). In series [1] (setting [10]), the “% Total Dose In Bladder (gamma camera data)” value is 41.57 % total dose and 31.19 % total dose and 34.90 % total dose. For the same compound, the “% total dose in bladder at 35 minutes” value in series [1] (35 min) is recorded as 35.89 % total dose. In addition, in series [1] (35 min), the “Comparison of % total dose” value was determined as 46.80. For the same compound, in series [1] (normal dogs), the “rate of excretion in the urine” value is “a significant difference exists between (XXXIA) and (XXXIB)”. The “Average % Total Dose in Urine Samples” value in series [2] (5 min post injection, 5 min) was 3.56 % total dose; in series [2] (10 min post injection, 10 min) it was 12.52 % total dose; in series [2] (15 min post injection, 15 min) it was 18.25 % total dose; in series [2] (20 min post injection, 20 min), 24.10 % total dose; in series [2] (25 min post injection, 25 min), 28.62 % total dose; in series [2] (30 min post injection, 30 min) it was 33.63 % total dose. Besides, the “Average % Total Dose in Urine Samples” value in series [2] (35 min post injection, 35 min) came to 35.89 % total dose.
